Source: patent publication US20090041897A1, “Transparent, concentrated liquid nutritional supplement composition” (priority 2007, published 2009)

Assays:
[1] = solubility, turbidity and stability of ingredients in water; assay type: physicochemical; details: minerals considered for the concentrate
Experimental: Each ingredient or nutrient is evaluated at suitable concentration (based on actual usage level) in 100 ml deionized water enclosed in glass bottle and checked for turbidity. Only non turbidity producing materials (estimated at 25 NTU or less) were selected. Visual evaluation also conducted to ensure clear liquids are obtained. Solutions with an estimated 30 NTG and above are eliminated as potential ingredients. Bottles were also checked for precipitated solids at 0, 2, 4, 6, 8, 10 and 24 hours at room temperature. If precipitate is observed, the ingredient/nutrient is rendered unusable for producing appealing liquid nutritional supplement. Furthermore, ingredients are evaluated in a final diluted liquid nutritional supplement and/or diluents to ensure that dilution will not change the physical appearance of concentrates. […] Insoluble materials are excluded from the formulation. Saturation point is also observed for each ingredient/nutrient to ensure that no precipitation will occur. […] Each ingredient or nutrient is evaluated at suitable concentration (based on actual usage level) in 100 ml deionized water enclosed in glass bottle and checked turbidity. […] Furthermore, ingredients are evaluated in a final diluted liquid nutritional supplement to ensure that dilution will not change the physical appearance of concentrates. […]

[2] = general statement in the description; cited from earlier work

| Compound | solubility in water [2] | other results |
| --- | --- | --- |
| [Mg+2] [magnesium] |  | effect on clarity of concentrate and finished liquid nutritional supplement [1]: induce cloudiness and turbidity; solubility [1]: not soluble |
| CS(C)(=O)=O [MSM, Methyl-Sulfonyl-Methane] | readily water soluble |  |
| Hydrolyzed Collagen | readily water soluble |  |
| Chondroitin sulfate | soluble in water |  |
| O=C1O[C@H]([C@@H](O)CO)C(O)=C1O [Vitamin C, Ascorbic Acid] |  | stability in water [2]: degrades in water in fast fashion |
| Gelatin | soluble only in hot water |  |
| N[C@H]1C(O)O[C@H](CO)[C@@H](O)[C@@H]1O (some centres unmarked) [Glucosamine] | water-soluble |  |
